According to patent US8309545B2, “Benzofuran potassium channel blockers and uses thereof” (Bionomics Limited, priority 2006, dated 2012):

Target: T1, human Kv1.3 ion channel (Homo sapiens, UniProt P22001)
T1 construct: Human Jurkat cells (which endogenously express hKv1.3) were used in place of rat L929 cells; endogenous in cells; host or cells: Human Jurkat cells
Assay: Inhibition of Kv1.3 currents, planar patch clamp in Jurkat cells
Type: cell-based
Conditions: Human Jurkat cells (endogenous hKv1.3), averaged dose response data from 3 or more cells
Method: Potency of compounds to inhibit the human Kv1.3 ion channel were determined as follows:
EC50 values for inhibition of Kv1.3 currents were determined by the method according to Schmitz et al (2005) Molecular Pharmacology 68, 1254-1270 with the following differences: • 1. Human Jurkat cells (which endogenously express hKv1.3) were used in place of rat L929 cells. • 2. All electrophysiology was performed using planar patch clamp (Port-A-Patch, Nanion Technologies Gmbh, Munich) in contrast to conventional patch clamp. • 3. EC50 values shown were determined from averaged dose response data obtained from 3 or more cells.

T1 sequence (P22001 whole entry): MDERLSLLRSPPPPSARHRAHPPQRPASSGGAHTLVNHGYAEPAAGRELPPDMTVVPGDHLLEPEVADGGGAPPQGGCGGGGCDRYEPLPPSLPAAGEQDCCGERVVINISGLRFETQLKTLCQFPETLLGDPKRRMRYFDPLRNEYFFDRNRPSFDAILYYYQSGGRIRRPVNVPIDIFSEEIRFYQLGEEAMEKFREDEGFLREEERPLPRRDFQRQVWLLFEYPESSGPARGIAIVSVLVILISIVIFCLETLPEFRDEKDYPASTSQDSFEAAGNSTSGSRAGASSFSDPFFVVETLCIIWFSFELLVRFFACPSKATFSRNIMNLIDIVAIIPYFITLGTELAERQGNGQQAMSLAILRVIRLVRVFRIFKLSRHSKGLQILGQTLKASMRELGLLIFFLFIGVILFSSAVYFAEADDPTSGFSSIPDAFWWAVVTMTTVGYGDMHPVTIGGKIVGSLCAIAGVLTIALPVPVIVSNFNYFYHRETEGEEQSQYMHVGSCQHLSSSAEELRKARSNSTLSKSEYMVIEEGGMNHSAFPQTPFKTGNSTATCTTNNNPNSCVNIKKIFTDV

EC50 [nM]	SMILES
160	CC(=O)c1c(OCCCC#N)c(OCCCc2ccccc2)c2occc2c1C [Example 54a, 5-Acetyl-6-(3-cyanopropoxy)-4-methyl-7-(3-phenylpropoxy)benzofuran]
165	Cc1cc(=O)c2c(C)c3ccoc3c(OC[C@H]3C[C@@H]3c3ccccc3)c2o1 (racemic) [Example 58a, rac-4,7-Dimethyl-9-(1S,2S-2-phenyl-cyclopropylmethoxy)-furo[3,2-g]chromen-5-one]
531	CC(=O)c1c(O)c(OCCCc2ccc(F)cc2)c2occc2c1C [Example 47a, 5-Acetyl-7-(3-(4-fluorophenyl)propoxy)-6-hydroxy-4-methylbenzofuran]
1600	CC(=O)c1c(OCCCc2nnn[nH]2)c(OCCCc2ccccc2)c2occc2c1C [Example 54b, 5-Acetyl-6-(3-(1H-tetrazol-5-yl)-propoxy)-4-methyl-7-(3-phenylpropoxy)benzofuran]

More lines, now with the values behind:

SMILES	EC50 [nM]
CC(=O)c1c(O)c(OCCOc2ccc(F)cc2)c2occc2c1C [Example 43c, 5-Acetyl-7-(2-(4-fluorophenoxy)-ethoxy)-6-hydroxy-4-methylbenzofuran]	954
COc1c(C(C)=O)c(OCCCSc2ccccc2)c(OC)c2occc12 [Example 8, 5-Acetyl-4,7-dimethoxy-6-(3-(phenylthio)propoxy)benzofuran]	750
CC(=O)c1c(OCCCn2ccnc2)c(OCCCc2ccccc2)c2occc2c1C [Example 29, 5-Acetyl-6-(3-imidazol-1-yl-propoxy)-4-methyl-7-(3-phenylpropoxy)-benzofuran]	136
COc1c2occc2c(C)c2c(=O)cc(C)oc12 [4 a)]	790
CC(=O)c1c(OCCN2CCCC2)c(OCCCc2ccccc2)c2occc2c1C [Example 34, 1-[4-Methyl-7-(3-phenyl-propoxy)-6-(2-pyrrolidin-1-yl-ethoxy)-benzofuran-5-yl]-ethanone]	223
CC(=O)c1c(OCCN2CCOCC2)c(OC/C=C/c2ccccc2)c2occc2c1C [Example 61, 1-[4-Methyl-6-(2-morpholin-4-yl-ethoxy)-7-(E-3-phenyl-allyloxy)-benzofuran-5-yl]-ethanone]	221
CC(=O)c1c(OCCNC2CCCC2)c(OCCCc2ccccc2)c2occc2c1C [Example 32, 1-[6-(2-Cyclopentylamino-ethoxy)-4-methyl-7-(3-phenyl-propoxy)-benzofuran-5-yl]-ethanone]	49
CC(=O)c1c(OCCNC2CCCC2)c(OCCC(C)c2ccccc2)c2occc2c1C (stereo not drawn) [Example 53, 1-[6-(2-Cyclopentylamino-ethoxy)-4-methyl-7-(3-phenyl-butoxy)-benzofuran-5-yl]-ethanone]	23
COc1c(C(C)=O)c(OCCS(=O)(=O)c2ccccc2)c(OC)c2occc12 [Example 9, 5-Acetyl-4,7-dimethoxy-6-(2-(benzenesulfonyl)ethoxy)benzofuran]	2420
CC(=O)c1c(OCC(=O)N2CCOCC2)c(OCCCc2ccccc2)c2occc2c1C [Example 42, 2-[5-Acetyl-4-methyl-7-(3-phenyl-propoxy)-benzofuran-6-yloxy]-1-morpholin-4-yl-ethanone]	480
CC(=O)c1c(OCCN2CCCCC2)c(OCCCc2ccccc2)c2occc2c1C [Example 33, 1-[4-Methyl-7-(3-phenyl-propoxy)-6-(2-piperidin-1-yl-ethoxy)-benzofuran-5-yl]-ethanone]	343
CC(=O)c1c(OCCN2CCOCC2)c(OCC[C@@H](C)c2ccccc2)c2occc2c1C [Example 51, 1-[4-Methyl-6-(2-morpholin-4-yl-ethoxy)-7-(3-phenyl-butoxy)-benzofuran-5-yl]-ethanone]	18
CC(=O)c1c(O)c(OCCC(C)c2ccccc2)c2occc2c1C (stereo not drawn) [Example 50a, 1-[6-Hydroxy-4-methyl-7-(3-RS-phenylbutoxy)-benzofuran-5-yl]-ethanone]	423
COc1c(C(C)=O)c(OCCCS(=O)(=O)c2ccccc2)c(OC)c2occc12 [Example 10, 5-Acetyl-4,7-dimethoxy-6-(3-(benzenesulfonyl)propoxy)benzofuran]	1510
